Results from patent publication US20060069132A1, “Azolecarboxamide herbicides” (priority 2004, published 2006).

Key:
woolly cupgrass = assay: Test C pre-/postemergence herbicide test; assay type: in vivo, Eriochloa villosa; conditions: preemergence; for Plant response rating (0 = no effect, 100 = complete control), Cupgrass, Woolly: 125 g ai/ha
Summary of the method: (§1)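 Emerged plants at the 1- to 4-leaf stage (2–18 cm), or freshly planted seeds, received test chemicals in a non-phytotoxic solvent mixture with surfactant. Response was visually scored against controls after 12 to 14 days in the greenhouse, on a 0 (no effect) to 100 (complete control) scale.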

rice = assay: Test C flooded paddy test; assay type: in vivo, Oryza sativa; conditions: for Plant response rating, Rice: 500 g ai/ha, visual rating after 12 to 14 days
Summary of the method: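 Postemergence sprays applied to plants 2 to 18 cm tall (1- to 4-leaf stage); paddy species grown to 2-leaf stage under flooding. After 12 to 14 days in greenhouse, visual rating versus untreated controls on 0–100 scale (0 no effect, 100 complete control).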

[1] = test system: common (oilseed) sunflower; assay: Test C pre-/postemergence herbicide test; assay type: in vivo, Helianthus annuus; conditions: preemergence; for Plant response rating (0 = no effect, 100 = complete control), Sunflower: 125 g ai/ha
Summary of the method: as §1

corn = assay: Test C pre-/postemergence herbicide test; assay type: in vivo, Zea mays; conditions: preemergence; for Plant response rating (0 = no effect, 100 = complete control), Corn: 125 g ai/ha
Summary of the method: as §1

velvetleaf = assay: Test C pre-/postemergence herbicide test; assay type: in vivo, Abutilon theophrasti; conditions: preemergence; for Plant response rating (0 = no effect, 100 = complete control), Velvetleaf: 125 g ai/ha
Summary of the method: as §1

bermudagrass = assay: Test C pre-/postemergence herbicide test; assay type: in vivo, Cynodon dactylon; conditions: preemergence; for Plant response rating (0 = no effect, 100 = complete control), Bermudagrass: 125 g ai/ha
Summary of the method: as §1

soybean = assay: Test C pre-/postemergence herbicide test; assay type: in vivo, Glycine max; conditions: preemergence; for Plant response rating (0 = no effect, 100 = complete control), Soybean: 125 g ai/ha
Summary of the method: as §1

[2] = test system: smallflower umbrella sedge; assay: Test C flooded paddy test; assay type: in vivo, Cyperus difformis; conditions: for Plant response rating, Sedge, Umbrella: 500 g ai/ha, visual rating after 12 to 14 days
[3] = 500 g ai/ha, scale 0 to 100 (0 no effect, 100 complete control), visual, 12 to 14 days
[4] = 125 g ai/ha, scale 0 to 100 (0 no effect, 100 complete control)
[5] = 250 g ai/ha, scale of 0 to 100, 0 is no effect, 100 is complete control
[6] = scale 0 to 100 (0 no effect, 100 complete control)
[7] = 62 g ai/ha, scale 0 to 100, 0 no effect, 100 complete control

Structure (SMILES): CCNC(=O)c1cccc(NC(=O)c2nn(C(C)(C)CC)nc2CC)c1 [Compound 376]
- Plant response rating, Cupgrass, Woolly (woolly cupgrass; 62 g ai/ha, scale 0 to 100): 5
- Plant response rating (0 = no effect, 100 = complete control), Cupgrass, Woolly (woolly cupgrass): 30
- Plant response rating, Cupgrass, Woolly (woolly cupgrass; 250 g ai/ha, scale 0-100): 75
- Plant response rating, Cupgrass, Woolly (woolly cupgrass; [3]): 85
- Rice plant response rating (rice; 62 g ai/ha, scale 0 to 100): 70
- Rice plant response rating (rice; [4]): 75
- Rice plant response rating (rice; [5]): 75
- Plant response rating, Rice (rice; [6]): 80
- Plant response rating, Sunflower ([1]; 62 g ai/ha, scale 0 to 100): 0
- Plant response rating (0 = no effect, 100 = complete control), Sunflower [1]: 0
- Plant response rating, Sunflower ([1]; 250 g ai/ha, scale 0-100): 0
- Plant response rating, Sunflower [1, 3]: 0
- Plant response rating, Corn (corn; 62 g ai/ha, scale 0 to 100): 20
- Plant response rating (0 = no effect, 100 = complete control), Corn (corn): 40
- Plant response rating, Corn (corn; 250 g ai/ha, scale 0-100): 45
- Plant response rating, Corn (corn; [3]): 50
- Plant response rating, Velvetleaf (velvetleaf; 62 g ai/ha, scale 0 to 100): 0
- Plant response rating (0 = no effect, 100 = complete control), Velvetleaf (velvetleaf): 5
- Plant response rating, Velvetleaf (velvetleaf; [3]): 50
- Plant response rating, Bermudagrass (bermudagrass; [7]): 80
- Plant response rating (0 = no effect, 100 = complete control), Bermudagrass (bermudagrass): 90
- Plant response rating, Bermudagrass (bermudagrass; 250 g ai/ha, scale 0-100): 100
- Plant response rating, Bermudagrass (bermudagrass; [3]): 100
- Plant response rating, Soybean (soybean; 62 g ai/ha, scale 0 to 100): 0
- Plant response rating (0 = no effect, 100 = complete control), Soybean (soybean): 10
- Plant response rating, Soybean (soybean; 250 g ai/ha, scale 0-100): 10
- Plant response rating, Soybean (soybean; [3]): 10
- Sedge, Umbrella plant response rating ([2]; 62 g ai/ha, scale 0 to 100): 80
- Sedge, Umbrella plant response rating [2, 4]: 85
- Sedge, Umbrella plant response rating [2, 5]: 85
- Plant response rating, Sedge, Umbrella [2, 6]: 85

Structure (SMILES): Cc1nn(C(C)(C)C)nc1C(=O)Nc1cccc(C(=O)N(C)C)c1 [Compound 391]
- Plant response rating, Cupgrass, Woolly (woolly cupgrass; 62 g ai/ha, scale 0 to 100): 70
- Plant response rating (0 = no effect, 100 = complete control), Cupgrass, Woolly (woolly cupgrass): 75
- Plant response rating, Cupgrass, Woolly (woolly cupgrass; 250 g ai/ha, scale 0-100): 80
- Plant response rating, Cupgrass, Woolly (woolly cupgrass; [3]): 100
- Rice plant response rating (rice; 62 g ai/ha, scale 0 to 100): 65
- Rice plant response rating (rice; [4]): 65
- Rice plant response rating (rice; [5]): 75
- Plant response rating, Rice (rice; [6]): 80
- Plant response rating, Sunflower ([1]; 62 g ai/ha, scale 0 to 100): 50
- Plant response rating (0 = no effect, 100 = complete control), Sunflower [1]: 95
- Plant response rating, Sunflower ([1]; 250 g ai/ha, scale 0-100): 100
- Plant response rating, Sunflower [1, 3]: 100
- Plant response rating, Corn (corn; 62 g ai/ha, scale 0 to 100): 80
- Plant response rating (0 = no effect, 100 = complete control), Corn (corn): 80
- Plant response rating, Corn (corn; 250 g ai/ha, scale 0-100): 85
- Plant response rating, Corn (corn; [3]): 85
- Plant response rating, Velvetleaf (velvetleaf; 62 g ai/ha, scale 0 to 100): 100
- Plant response rating (0 = no effect, 100 = complete control), Velvetleaf (velvetleaf): 100
- Plant response rating, Velvetleaf (velvetleaf; 250 g ai/ha, scale 0-100): 100
- Plant response rating, Velvetleaf (velvetleaf; [3]): 100
- Plant response rating, Bermudagrass (bermudagrass; [7]): 95
- Plant response rating (0 = no effect, 100 = complete control), Bermudagrass (bermudagrass): 95
- Plant response rating, Bermudagrass (bermudagrass; 250 g ai/ha, scale 0-100): 95
- Plant response rating, Bermudagrass (bermudagrass; [3]): 95
- Plant response rating, Soybean (soybean; 62 g ai/ha, scale 0 to 100): 95
- Plant response rating (0 = no effect, 100 = complete control), Soybean (soybean): 95
- Plant response rating, Soybean (soybean; 250 g ai/ha, scale 0-100): 100
- Plant response rating, Soybean (soybean; [3]): 100
- Sedge, Umbrella plant response rating ([2]; 62 g ai/ha, scale 0 to 100): 80
- Sedge, Umbrella plant response rating [2, 4]: 80
- Sedge, Umbrella plant response rating [2, 5]: 85
- Plant response rating, Sedge, Umbrella [2, 6]: 95

Structure (SMILES): CCNC(=O)c1ccc(F)c(N(C(C)=O)C(=O)c2cc(C(C)(C)C)nn2CC)c1 [Compound 399]
- Plant response rating, Cupgrass, Woolly (woolly cupgrass; 62 g ai/ha, scale 0 to 100): 45
- Plant response rating (0 = no effect, 100 = complete control), Cupgrass, Woolly (woolly cupgrass): 65
- Plant response rating, Cupgrass, Woolly (woolly cupgrass; 250 g ai/ha, scale 0-100): 80
- Plant response rating, Cupgrass, Woolly (woolly cupgrass; [3]): 95
- Rice plant response rating (rice; 62 g ai/ha, scale 0 to 100): 65
- Rice plant response rating (rice; [4]): 65
- Rice plant response rating (rice; [5]): 75
- Plant response rating, Rice (rice; [6]): 75
- Plant response rating, Sunflower ([1]; 62 g ai/ha, scale 0 to 100): 0
- Plant response rating (0 = no effect, 100 = complete control), Sunflower [1]: 0
- Plant response rating, Sunflower [1, 3]: 35
- Plant response rating, Corn (corn; 62 g ai/ha, scale 0 to 100): 60
- Plant response rating (0 = no effect, 100 = complete control), Corn (corn): 70
- Plant response rating, Corn (corn; 250 g ai/ha, scale 0-100): 80
- Plant response rating, Corn (corn; [3]): 95
- Plant response rating, Velvetleaf (velvetleaf; 62 g ai/ha, scale 0 to 100): 95
- Plant response rating (0 = no effect, 100 = complete control), Velvetleaf (velvetleaf): 100
- Plant response rating, Velvetleaf (velvetleaf; [3]): 100
- Plant response rating, Bermudagrass (bermudagrass; [7]): 100
- Plant response rating (0 = no effect, 100 = complete control), Bermudagrass (bermudagrass): 100
- Plant response rating, Bermudagrass (bermudagrass; 250 g ai/ha, scale 0-100): 100
- Plant response rating, Bermudagrass (bermudagrass; [3]): 100
- Plant response rating, Soybean (soybean; 62 g ai/ha, scale 0 to 100): 75
- Plant response rating (0 = no effect, 100 = complete control), Soybean (soybean): 85
- Plant response rating, Soybean (soybean; [3]): 100
- Sedge, Umbrella plant response rating ([2]; 62 g ai/ha, scale 0 to 100): 65
- Sedge, Umbrella plant response rating [2, 4]: 70
- Sedge, Umbrella plant response rating [2, 5]: 85
- Plant response rating, Sedge, Umbrella [2, 6]: 85
